The values below come from PubChem BioAssay AID256 (DTP/NCI, 2004).

SMILES strings stand for the structures. Values joined by “and” are separate entries in the source; they are usually repeats but may differ in a detail not shown here. Equal values may be shown once. Toxic doses and inconclusive results are not listed.

The subject of the experiment is CD2F1 mice, L1210 leukemia ip, survival T/C. The experiment can be described thus: NCI In Vivo Anticancer Drug Screen. Data for tumor model L1210 Leukemia (intraperitoneal) in CD2F1 (CDF1) mice. The note with it: higher = longer survival. In outline: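 Mice carrying a transplanted tumor received test compound or vehicle alone. The value is the measurement in the treated group divided by that in the vehicle-treated control group.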

Setting [1] is: endpoint: mean survival time, dose: 100.0 mg/kg/injection, schedule: Q01DX009 (ip), vehicle: saline with Tween-80.
[2] abbreviates: endpoint: mean survival time, dose: 100.0 mg/kg/injection, schedule: Q04DX003 (ip), vehicle: saline.
[3] abbreviates: endpoint: mean survival time, dose: 200.0 mg/kg/injection, schedule: Q01DX009 (ip), vehicle: saline with Tween-80.
[4] abbreviates: endpoint: mean survival time, dose: 200.0 mg/kg/injection, schedule: Q04DX003 (ip), vehicle: saline.
The mark [5] stands for this setting: endpoint: mean survival time, dose: 100.0 mg/kg/injection, schedule: Q04DX003 (ip), vehicle: saline with Tween-80.
[6] abbreviates: endpoint: mean survival time, dose: 200.0 mg/kg/injection, schedule: Q04DX003 (ip), vehicle: saline with Tween-80.
[7] abbreviates: endpoint: mean survival time, dose: 400.0 mg/kg/injection, schedule: Q04DX003 (ip), vehicle: saline with Tween-80.
[8] abbreviates: endpoint: mean survival time, dose: 400.0 mg/kg/injection, schedule: Q01DX009 (ip), vehicle: saline with Tween-80.
Where [9] appears, read: endpoint: mean survival time, dose: 25.0 mg/kg/injection, schedule: Q01DX001 (ip), vehicle: saline.
Setting [10] is: endpoint: mean survival time, dose: 50.0 mg/kg/injection, schedule: Q01DX001 (ip), vehicle: saline.

With `Cc1c(N)nc(C(CC(N)=O)NCC(N)C(N)=O)nc1C(=O)NC(C(=O)NC(C)C(O)C(C)C(=O)NC(C(=O)NCCc1nc(-c2nc(C(=O)NCCCNC(C)c3ccccc3)cs2)cs1)C(C)O)C(OC1OC(CO)C(O)C(O)C1OC1OC(CO)C(O)C(OC(N)=O)C1O)c1cnc[nH]1` (stereo unspecified), the T/C was 100 % of control (endpoint: mean survival time, dose: 0.25 mg/kg/injection, schedule: Q01DX009 (ip), vehicle: water); 103 % of control and 105 % of control (endpoint: mean survival time, dose: 0.5 mg/kg/injection, schedule: Q01DX009 (ip), vehicle: water); 103 % of control (endpoint: mean survival time, dose: 1.0 mg/kg/injection, schedule: Q01DX009 (ip), vehicle: saline); 123 % of control and 98 % of control (endpoint: mean survival time, dose: 1.0 mg/kg/injection, schedule: Q01DX009 (ip), vehicle: water); 106 % of control (endpoint: mean survival time, dose: 2.0 mg/kg/injection, schedule: Q01DX009 (ip), vehicle: saline); 104 % of control and 109 % of control (endpoint: mean survival time, dose: 2.0 mg/kg/injection, schedule: Q01DX009 (ip), vehicle: water). Further, the T/C is 104 % of control (endpoint: mean survival time, dose: 4.0 mg/kg/injection, schedule: Q01DX009 (ip), vehicle: saline); 113 % of control and 102 % of control (endpoint: mean survival time, dose: 4.0 mg/kg/injection, schedule: Q01DX009 (ip), vehicle: water); 106 % of control (endpoint: mean survival time, dose: 8.0 mg/kg/injection, schedule: Q01DX009 (ip), vehicle: saline); 109 % of control (endpoint: mean survival time, dose: 8.0 mg/kg/injection, schedule: Q01DX009 (ip), vehicle: water); 101 % of control (endpoint: mean survival time, dose: 16.0 mg/kg/injection, schedule: Q01DX009 (ip), vehicle: saline); 113 % of control (endpoint: mean survival time, dose: 16.0 mg/kg/injection, schedule: Q01DX009 (ip), vehicle: water). Also, the T/C (endpoint: mean survival time, dose: 32.0 mg/kg/injection, schedule: Q01DX009 (ip), vehicle: saline) was 89 % of control.
On to `CCNc1nc(NC(C)C)nc(OC)n1`, for which the T/C is 98 % of control (endpoint: mean survival time, dose: 50.0 mg/kg/injection, schedule: Q01DX009 (ip), vehicle: saline with Tween-80); 93 % of control under setting [1]; 101 % of control under setting [2]; 96 % of control under setting [3]; 103 % of control under setting [4].
`CN(C)c1ncnc2c1ncn2-c1cccc(-n2cnc3c(N(C)C)ncnc32)c1`: the T/C by setting is: (endpoint: mean survival time, dose: 1.25 mg/kg/injection, schedule: Q01DX005 (ip), vehicle: other) 103 % of control; (endpoint: mean survival time, dose: 2.5 mg/kg/injection, schedule: Q01DX005 (ip), vehicle: other) 88 % of control; (endpoint: mean survival time, dose: 5.0 mg/kg/injection, schedule: Q01DX005 (ip), vehicle: other) 92 % of control; (endpoint: mean survival time, dose: 10.0 mg/kg/injection, schedule: Q01DX005 (ip), vehicle: other) 92 % of control; (endpoint: mean survival time, dose: 20.0 mg/kg/injection, schedule: Q01DX005 (ip), vehicle: other) 88 % of control.
For the molecule `c1ccc2c3c([nH]c2c1)CCCCC3`, the T/C reads like this: under setting [5], 92 % of control; under setting [6], 95 % of control; under setting [7], 94 % of control.
In the case of `N#CC(c1ccc([N+](=O)[O-])cc1)C(CC(=O)c1ccccc1)c1ccccc1` (stereo unspecified), the T/C runs as follows: (endpoint: mean survival time, dose: 50.0 mg/kg/injection, schedule: Q01DX009 (ip), vehicle: Klucel (hydroxypropylcellulose) (HPC)) 96 % of control; (endpoint: mean survival time, dose: 100.0 mg/kg/injection, schedule: Q01DX009 (ip), vehicle: Klucel (hydroxypropylcellulose) (HPC)) 101 % of control; (endpoint: mean survival time, dose: 200.0 mg/kg/injection, schedule: Q01DX009 (ip), vehicle: Klucel (hydroxypropylcellulose) (HPC)) 93 % of control.
Regarding `Nc1cc2c(c[n+](Cc3ccccc3)c3ccccc23)c2ccccc12`, the T/C was 104 % of control (endpoint: mean survival time, dose: 0.39 mg/kg/injection, schedule: Q04DX003 (ip), vehicle: other); 98 % of control (endpoint: mean survival time, dose: 0.78 mg/kg/injection, schedule: Q04DX003 (ip), vehicle: other); 104 % of control (endpoint: mean survival time, dose: 1.56 mg/kg/injection, schedule: Q04DX003 (ip), vehicle: other); 91 % of control (endpoint: mean survival time, dose: 6.25 mg/kg/injection, schedule: Q04DX003 (ip), vehicle: other).
In the case of `NC(CCl)=NCCc1ccsc1`, the T/C was 95 % of control (endpoint: mean survival time, dose: 25.0 mg/kg/injection, schedule: Q04DX002 (ip), vehicle: saline); 106 % of control (endpoint: mean survival time, dose: 50.0 mg/kg/injection, schedule: Q04DX002 (ip), vehicle: saline); 98 % of control and 112 % of control (endpoint: mean survival time, dose: 100.0 mg/kg/injection, schedule: Q04DX002 (ip), vehicle: saline).
Regarding `NC1CCCCC1N.O=S(=O)([O-])c1cccc(S(=O)(=O)[O-])c1.[Pt+4]`, the T/C was 166 % of control (endpoint: median survival time, dose: 6.25 mg/kg/injection, schedule: Q04DX003 (ip), vehicle: saline with Tween-80); 237 % of control and 370 % of control (endpoint: median survival time, dose: 12.5 mg/kg/injection, schedule: Q04DX003 (ip), vehicle: saline with Tween-80); 296 % of control and 325 % of control (endpoint: median survival time, dose: 25.0 mg/kg/injection, schedule: Q04DX003 (ip), vehicle: saline with Tween-80).
Regarding `Cc1ccc2[nH]c3c(c2c1)CSCC3`, the T/C under setting [1] was 104 % of control, the T/C under setting [3] was 102 % of control and the T/C under setting [8] was 102 % of control.
Consider `CC(=O)OCC1OC(n2ccc(O)cc2=O)C(OC(C)=O)C1OC(C)=O` (stereo unspecified), for which the T/C by setting is: (endpoint: median survival time, dose: 44.0 mg/kg/injection, schedule: Q01DX009 (ip), vehicle: saline + alcohol) 154 % of control; (endpoint: median survival time, dose: 67.0 mg/kg/injection, schedule: Q01DX009 (ip), vehicle: saline + alcohol) 164 % of control; (endpoint: median survival time, dose: 100.0 mg/kg/injection, schedule: Q01DX009 (ip), vehicle: saline + alcohol) 174 % of control; (endpoint: median survival time, dose: 150.0 mg/kg/injection, schedule: Q01DX009 (ip), vehicle: saline + alcohol) 165 % of control.
In the case of `CCCCCCCCCCCC1=C(O)C(=O)C=C(O)C1=O`, the T/C is 102 % of control (endpoint: mean survival time, dose: 12.5 mg/kg/injection, schedule: Q01DX001 (ip), vehicle: saline); 123 % of control under setting [9]; 101 % of control under setting [10].
For the molecule `C1CN(P2(N3CC3)=NP(N3CC3)(N3CC3)=NP(N3CC3)(N3CC3)=N2)CCO1` (stereo unspecified), the T/C (endpoint: mean survival time, dose: 6.25 mg/kg/injection, schedule: Q01DX009 (ip), vehicle: saline) was 120 % of control and 123 % of control and 109 % of control; the T/C under setting [9] is 121 % of control; the T/C under setting [10] is 119 % of control; the T/C (endpoint: mean survival time, dose: 100.0 mg/kg/injection, schedule: Q01DX009 (ip), vehicle: saline) was 98 % of control.
As to `Nc1nc(N)nc(N)n1`, the T/C is 95 % of control under setting [1]; 97 % of control under setting [5]; 94 % of control under setting [3]; 105 % of control under setting [6]; 95 % of control under setting [8]; 97 % of control under setting [7]. For the same molecule, where the note is “endpoint: mean survival time, dose: 800.0 mg/kg/injection, schedule: Q01DX009 (ip), vehicle: saline with Tween-80”, the T/C is 90 % of control.
In the case of `Cc1cn(C2CC(OP(=O)(O)OCC3OC(n4ccc(N)nc4=O)C(O)C3O)C(CO)O2)c(=O)[nH]c1=O` (stereo unspecified), the T/C (endpoint: median survival time, dose: 5.0 mg/kg/injection, schedule: Q01DX005 (ip), vehicle: saline) was 107 % of control; the T/C (endpoint: median survival time, dose: 10.0 mg/kg/injection, schedule: Q01DX005 (ip), vehicle: saline) was 117 % of control; the T/C (endpoint: median survival time, dose: 25.0 mg/kg/injection, schedule: Q01DX005 (ip), vehicle: saline) is 122 % of control.
As for `CC1COC(Nc2cccc3c2CCCC3)=N1` (stereo unspecified), the T/C is, setting by setting: (endpoint: mean survival time, dose: 12.5 mg/kg/injection, schedule: Q04DX003 (ip), vehicle: saline with Tween-80) 97 % of control; (endpoint: mean survival time, dose: 25.0 mg/kg/injection, schedule: Q04DX003 (ip), vehicle: saline with Tween-80) 97 % of control; (endpoint: mean survival time, dose: 50.0 mg/kg/injection, schedule: Q04DX003 (ip), vehicle: saline with Tween-80) 97 % of control.
With `CC(C)(O)C#CC(C)(C)O`, the T/C under setting [2] is 101 % of control; the T/C under setting [4] is 101 % of control; the T/C (endpoint: mean survival time, dose: 400.0 mg/kg/injection, schedule: Q04DX003 (ip), vehicle: saline) was 97 % of control.
As to `CC(=O)Nc1cccc2ccccc12`, the T/C by setting is: under setting [1], 95 % of control; under setting [3], 97 % of control.
For `Nc1cc(Cl)c(N)c(N)n1`, the T/C is 100 % of control under setting [1] and 91 % of control under setting [3].
With `Cc1cccc(C)c1N`, the T/C is 96 % of control (endpoint: mean survival time, dose: 100.0 mg/kg/injection, schedule: Q01DX001 (ip), vehicle: saline with Tween-80); 94 % of control (endpoint: mean survival time, dose: 200.0 mg/kg/injection, schedule: Q01DX001 (ip), vehicle: saline with Tween-80); 91 % of control (endpoint: mean survival time, dose: 400.0 mg/kg/injection, schedule: Q01DX001 (ip), vehicle: saline with Tween-80).
